Consider 14 molecules from BindingDB's records for doi:10.1074/jbc.M111.326777 (University of North Carolina, 2012).

Molecules are shown by their SMILES. Counter-ions that a name gives are not always drawn. A value given as a limit tells only on which side of the number the result lay.

Assay in all cases: Enzymatic Assay
What all share (settings): pH 7.5; 24 °C

For one assay, the target named is T1, Phosphodiesterase (Trypanosoma cruzi, UniProt Q53I59).
T1 sequence (Q53I59 whole entry): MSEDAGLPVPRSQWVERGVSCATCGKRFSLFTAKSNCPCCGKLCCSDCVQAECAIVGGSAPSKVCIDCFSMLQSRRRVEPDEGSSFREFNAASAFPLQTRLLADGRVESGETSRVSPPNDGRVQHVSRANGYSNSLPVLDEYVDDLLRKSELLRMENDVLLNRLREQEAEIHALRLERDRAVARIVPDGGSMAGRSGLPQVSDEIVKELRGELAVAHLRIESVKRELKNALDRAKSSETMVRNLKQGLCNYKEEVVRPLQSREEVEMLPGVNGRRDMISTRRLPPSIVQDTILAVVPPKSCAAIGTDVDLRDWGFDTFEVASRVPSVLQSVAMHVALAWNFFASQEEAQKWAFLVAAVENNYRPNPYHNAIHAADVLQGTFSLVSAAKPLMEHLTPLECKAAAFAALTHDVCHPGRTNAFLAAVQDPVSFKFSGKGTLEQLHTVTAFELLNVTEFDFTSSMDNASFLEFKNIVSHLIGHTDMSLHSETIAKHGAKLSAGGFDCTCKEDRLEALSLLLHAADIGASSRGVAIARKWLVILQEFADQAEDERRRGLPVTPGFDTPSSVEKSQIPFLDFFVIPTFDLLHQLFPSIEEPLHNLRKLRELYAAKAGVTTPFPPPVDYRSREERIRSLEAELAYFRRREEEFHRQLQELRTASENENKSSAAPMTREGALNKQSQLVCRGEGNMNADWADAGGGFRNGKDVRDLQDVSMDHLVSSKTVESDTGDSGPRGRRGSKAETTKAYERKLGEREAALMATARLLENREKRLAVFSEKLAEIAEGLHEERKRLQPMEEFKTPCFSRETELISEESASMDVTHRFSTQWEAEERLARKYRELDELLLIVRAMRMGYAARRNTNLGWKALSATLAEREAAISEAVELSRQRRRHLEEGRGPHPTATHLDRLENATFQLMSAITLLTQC
The method, then: (§1) Enzymatic activities were assayed using [3H] cAMP and [3H]cGMP as substrate.

In assay [1] the target is cGMP-inhibited 3',5'-cyclic phosphodiesterase 3A (Homo sapiens, UniProt Q14432). The method, then: as §1
Assay [2] concerns the target cGMP-specific 3',5'-cyclic phosphodiesterase (Homo sapiens, UniProt O76074). The method, then:
as §1

The target in assay [3] is cAMP-specific 3',5'-cyclic phosphodiesterase 4D (Homo sapiens, UniProt Q08499). The method, then:
as §1

Assay [4] deals with High affinity cAMP-specific and IBMX-insensitive 3',5'-cyclic phosphodiesterase 8A (Homo sapiens, UniProt O60658). The method, then:
as §1

The target of assay [5] is cGMP-dependent 3',5'-cyclic phosphodiesterase (Homo sapiens, UniProt O00408). The method, then:
as §1

cGMP-inhibited 3',5'-cyclic phosphodiesterase 3A, sequence (Q14432 whole entry): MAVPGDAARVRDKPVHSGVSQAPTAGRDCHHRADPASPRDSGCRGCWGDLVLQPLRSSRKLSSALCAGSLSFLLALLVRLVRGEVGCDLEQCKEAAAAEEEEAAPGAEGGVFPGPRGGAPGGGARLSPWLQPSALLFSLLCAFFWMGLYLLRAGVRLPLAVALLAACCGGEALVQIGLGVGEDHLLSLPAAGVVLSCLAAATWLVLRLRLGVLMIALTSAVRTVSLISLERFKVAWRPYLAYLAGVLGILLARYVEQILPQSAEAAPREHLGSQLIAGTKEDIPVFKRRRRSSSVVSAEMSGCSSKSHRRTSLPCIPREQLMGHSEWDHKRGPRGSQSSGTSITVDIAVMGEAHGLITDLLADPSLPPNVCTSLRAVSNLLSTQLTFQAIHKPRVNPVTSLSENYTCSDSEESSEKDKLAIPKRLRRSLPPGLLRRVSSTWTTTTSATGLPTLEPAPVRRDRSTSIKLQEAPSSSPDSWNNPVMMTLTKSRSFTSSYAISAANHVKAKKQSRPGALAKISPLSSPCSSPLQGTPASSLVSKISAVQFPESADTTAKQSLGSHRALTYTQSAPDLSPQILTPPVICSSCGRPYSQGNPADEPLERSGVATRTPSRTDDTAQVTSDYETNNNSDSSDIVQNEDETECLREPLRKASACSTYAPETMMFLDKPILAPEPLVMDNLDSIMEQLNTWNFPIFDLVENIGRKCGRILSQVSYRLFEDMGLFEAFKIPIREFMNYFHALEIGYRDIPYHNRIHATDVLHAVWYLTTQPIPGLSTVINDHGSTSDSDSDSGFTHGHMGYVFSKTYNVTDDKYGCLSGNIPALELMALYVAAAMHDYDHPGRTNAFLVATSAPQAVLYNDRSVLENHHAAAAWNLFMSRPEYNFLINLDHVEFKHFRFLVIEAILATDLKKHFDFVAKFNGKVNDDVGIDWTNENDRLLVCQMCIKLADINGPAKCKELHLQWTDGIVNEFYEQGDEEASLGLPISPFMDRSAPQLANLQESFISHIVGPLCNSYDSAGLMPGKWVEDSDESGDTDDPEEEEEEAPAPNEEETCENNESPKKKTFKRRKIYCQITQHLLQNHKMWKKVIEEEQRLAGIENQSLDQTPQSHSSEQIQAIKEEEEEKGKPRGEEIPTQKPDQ
cAMP-specific 3',5'-cyclic phosphodiesterase 4D, sequence (Q08499 whole entry): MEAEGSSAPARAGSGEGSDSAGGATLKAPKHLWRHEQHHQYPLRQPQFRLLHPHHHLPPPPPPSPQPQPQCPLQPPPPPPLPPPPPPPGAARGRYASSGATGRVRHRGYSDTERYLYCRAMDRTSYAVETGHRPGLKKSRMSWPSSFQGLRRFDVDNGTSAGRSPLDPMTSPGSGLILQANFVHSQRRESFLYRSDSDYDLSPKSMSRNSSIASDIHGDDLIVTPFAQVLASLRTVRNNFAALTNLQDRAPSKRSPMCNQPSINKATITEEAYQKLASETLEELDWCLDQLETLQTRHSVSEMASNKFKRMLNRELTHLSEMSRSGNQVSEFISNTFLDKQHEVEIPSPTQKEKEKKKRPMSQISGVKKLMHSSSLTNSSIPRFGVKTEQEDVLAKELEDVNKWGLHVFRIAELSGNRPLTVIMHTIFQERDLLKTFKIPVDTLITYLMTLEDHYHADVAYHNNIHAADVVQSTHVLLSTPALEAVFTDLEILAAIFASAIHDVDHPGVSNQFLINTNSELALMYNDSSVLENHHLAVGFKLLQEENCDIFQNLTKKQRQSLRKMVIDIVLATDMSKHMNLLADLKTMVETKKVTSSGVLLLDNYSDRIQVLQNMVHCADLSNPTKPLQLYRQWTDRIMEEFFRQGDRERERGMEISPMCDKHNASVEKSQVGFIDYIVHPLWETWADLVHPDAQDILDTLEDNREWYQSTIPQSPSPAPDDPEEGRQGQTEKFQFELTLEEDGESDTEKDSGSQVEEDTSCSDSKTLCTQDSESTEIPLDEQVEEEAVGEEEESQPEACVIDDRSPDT
High affinity cAMP-specific and IBMX-insensitive 3',5'-cyclic phosphodiesterase 8A, sequence (O60658 whole entry): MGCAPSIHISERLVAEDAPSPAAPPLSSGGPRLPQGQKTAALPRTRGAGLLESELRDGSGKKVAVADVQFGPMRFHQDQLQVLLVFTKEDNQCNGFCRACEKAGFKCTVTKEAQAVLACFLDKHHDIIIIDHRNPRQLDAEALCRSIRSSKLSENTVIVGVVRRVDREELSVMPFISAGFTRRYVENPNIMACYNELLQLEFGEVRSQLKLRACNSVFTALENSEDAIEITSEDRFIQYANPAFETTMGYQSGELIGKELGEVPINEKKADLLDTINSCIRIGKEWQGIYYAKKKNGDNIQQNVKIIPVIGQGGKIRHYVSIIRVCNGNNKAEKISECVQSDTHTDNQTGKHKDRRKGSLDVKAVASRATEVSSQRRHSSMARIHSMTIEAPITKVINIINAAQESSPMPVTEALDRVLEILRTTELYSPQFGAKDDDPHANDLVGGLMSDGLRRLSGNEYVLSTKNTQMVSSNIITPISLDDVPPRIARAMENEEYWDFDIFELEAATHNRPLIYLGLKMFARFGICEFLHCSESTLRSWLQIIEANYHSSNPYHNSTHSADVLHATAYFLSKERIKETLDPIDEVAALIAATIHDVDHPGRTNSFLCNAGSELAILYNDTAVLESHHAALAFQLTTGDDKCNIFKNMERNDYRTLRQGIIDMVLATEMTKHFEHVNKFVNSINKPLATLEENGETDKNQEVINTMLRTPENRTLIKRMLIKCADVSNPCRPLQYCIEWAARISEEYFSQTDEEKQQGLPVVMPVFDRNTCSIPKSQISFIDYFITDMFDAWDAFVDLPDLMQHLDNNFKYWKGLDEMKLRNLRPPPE
cGMP-dependent 3',5'-cyclic phosphodiesterase, sequence (O00408 whole entry): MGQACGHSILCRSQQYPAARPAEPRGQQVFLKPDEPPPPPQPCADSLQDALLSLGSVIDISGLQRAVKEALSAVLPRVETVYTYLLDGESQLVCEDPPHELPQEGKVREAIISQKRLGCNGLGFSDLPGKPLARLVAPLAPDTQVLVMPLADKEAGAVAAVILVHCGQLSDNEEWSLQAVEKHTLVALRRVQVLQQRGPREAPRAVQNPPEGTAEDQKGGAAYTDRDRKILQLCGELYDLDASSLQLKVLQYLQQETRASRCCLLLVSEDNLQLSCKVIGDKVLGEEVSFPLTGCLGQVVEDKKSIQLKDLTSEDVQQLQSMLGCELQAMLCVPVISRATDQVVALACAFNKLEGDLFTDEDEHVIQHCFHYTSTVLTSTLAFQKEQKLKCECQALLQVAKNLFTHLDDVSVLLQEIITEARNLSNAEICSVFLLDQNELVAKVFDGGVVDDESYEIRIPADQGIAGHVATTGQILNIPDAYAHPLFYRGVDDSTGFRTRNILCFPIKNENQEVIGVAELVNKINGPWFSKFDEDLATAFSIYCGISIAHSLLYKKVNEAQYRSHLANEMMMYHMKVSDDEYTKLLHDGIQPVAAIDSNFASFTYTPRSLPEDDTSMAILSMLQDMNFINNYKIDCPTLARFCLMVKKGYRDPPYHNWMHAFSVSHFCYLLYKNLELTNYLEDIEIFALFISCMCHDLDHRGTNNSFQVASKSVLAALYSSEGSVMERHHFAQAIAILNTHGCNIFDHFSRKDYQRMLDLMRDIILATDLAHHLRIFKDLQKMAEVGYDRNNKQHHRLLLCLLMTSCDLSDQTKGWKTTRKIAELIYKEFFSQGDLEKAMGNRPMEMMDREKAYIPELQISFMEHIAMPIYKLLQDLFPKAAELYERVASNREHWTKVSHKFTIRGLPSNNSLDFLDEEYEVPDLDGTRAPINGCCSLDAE

For `CC(=O)CCCCn1c(=O)c2c(ncn2C)n(C)c1=O` [1-(5-Oxohexyl)theobromine (pentoxifylline)], the IC50 at Phosphodiesterase is above 100 µM.
With `COc1cc2c(cc1OC)-c1c/c(=N\c3c(C)cc(C)cc3C)n(C)c(=O)n1CC2` [CAS_5537], the IC50 in assay [1] turned out to be 0.0003 µM; on Phosphodiesterase it was 3.9 µM.
On to `CC(C)Cn1c(=O)n(C)c(=O)c2[nH]cnc21` [1-methyl-3-(2-methylpropyl)-2,3,6,7-tetrahydro-1H-purine-2,6-dione], for which the IC50 against Phosphodiesterase worked out at 68 µM.
On the same count and under the same terms, to `COc1ccc([C@@H]2CNC(=O)C2)cc1OC1CCCC1` (racemic) [Adeo] belongs above 100 µM.
`CCCc1nn(C)c2c(=O)[nH]c(-c3cc(S(=O)(=O)NC(=O)OC(C)C)ccc3OCC)nc12` [Wyq16#]: the half-inhibitory concentration (IC50) on Phosphodiesterase is 0.23 µM; in assay [2] it was 0.003 µM.
Take `CCOC(=O)c1cnc2c(cnn2CC)c1N=NC(C)C` [1-Ethyl-4-(N'-isopropylidene-hydrazino)-1H-pyrazolo[3,4-b]pyridine-5-carboxylic acid ethyl ester]: the IC50 in assay [3] turned out to be 2 µM; against Phosphodiesterase, 0.7 µM.
Consider `COc1cc(-c2ccc(=O)[nH]n2)ccc1OC(F)F` [6-[4-(difluoromethoxy)-3-methoxyphenyl]-2,3-dihydropyridazin-3-one], for which the IC50 in assay [1] is 0.5 µM; against Phosphodiesterase it was above 100 µM.
Consider `Cc1[nH]c(=O)c(C#N)cc1-c1ccncc1` [Milrinone], for which the IC50 against Phosphodiesterase is above 100 µM.
On to `OCCN(CCO)c1nc(N2CCCCC2)c2nc(N(CCO)CCO)nc(N3CCCCC3)c2n1` [Dipyridamine], for which the IC50 in assay [4] is 0.5 µM; against Phosphodiesterase it was 6.9 µM.
On to `CCCCCC[C@H]([C@H](C)O)n1cnc2c(N)ncnc21` (relative stereo) [3-(6-amino-9H-purin-9-yl)nonan-2-ol], for which the IC50 was above 100 µM against Phosphodiesterase and 0.8 µM in assay [5].
`CN(C(=O)CCCOc1ccc2[nH]c(=O)ccc2c1)C1CCCCC1` [N-Cyclohexyl-N-methyl-4-(2-oxo-1,2-dihydro-quinolin-6-yloxy)-butyramide] yielded an IC50 at Phosphodiesterase above 100 µM.
Same read-out and setting: with `CCCc1nn(C)c2c(=O)[nH]c(-c3cc(S(=O)(=O)N4CCN(C)CC4)ccc3OCC)nc12` [SILDENAFIL CITRATE] the figure was above 1 µM; with `COc1ccc(Cc2nccc3cc(OC)c(OC)cc23)cc1OC`, 25 µM; with `CCCOc1cc(CC2CNC(=O)N2)ccc1OC` (stereo not given) [Ro20-1724], above 100 µM.

Broadly, the IC50 is the concentration needed to halve the response being measured. A low value points to higher potency.
